The values below come from patent US11014953B2, “Trigger-activatable metabolic sugar precursors for cancer-selective labeling and targeting” (priority 2015, dated 2021).

The subject of data set [1] is LS174T colon cancer cells. Put plainly: Metabolic labeling of LS174T cells with azido-sugars, azides detected by DBCO-Cy5 (confocal imaging, flow cytometry). It counts as cell-based. On the procedure: General procedures for confocal imaging of azido-sugar labeled cells. Cells were seeded onto coverslips in a 6-well plate at a cell density of 40 k/well. Ac4ManAz or Ac3ManAz derivatives were added with a final concentration of 50 μM and the cells were incubated at 37° C. for 72 h. The medium was removed and washed with PBS for three times. DBCO-Cy5 (50 μM) in Opti-MEM was then added and the cells were incubated for another 1 h. Then the medium was removed and the cells were washed with PBS for three times. 4% paraformaldehyde (PFA) solution was added to fix the cells for 10 min, followed by staining of cell nucleus with DAPI (2 μg/mL) for 10 min. The coverslips were mounted on microscope slides with the addition of ProLong Gold antifade reagent, and the prepared sample was stored in dark for imaging.
General procedures for flow cytometry analysis of azido-sugar labeled cells. Cells were seeded onto coverslips in a 6-well plate at a cell density of 40 k/well. Ac4ManAz or Ac3ManAz derivatives were added and incubated with cells for 72 h. After removal of medium and multiple washing steps, DBCO-Cy5 in opti-MEM was added and incubated with cells at 37° C. for 1 h. The opti-MEM was then removed and cells were washed with PBS for three times. Cells were lifted by incubating with trypsin solution (1 mL) at 37° C. for 3 min and transferred to test tubes with addition of 4% PFA solution (0.5 mL). Twenty thousand cells per sample were analyzed by flow cytometry and data analysis was performed on the FCS Express software.
Ac3ManAzNB mediated controlled cell labeling. LS174T cells were seeded onto coverslips in a 6-well plate at a cell density of 40 k/well. Ac3ManAzNB with a final concentration of 50 μM was added. […] Cells without UV irradiation were continuously incubated for 72 h. Cell samples for confocal imaging and flow cytometry were then prepared following the above-mentioned procedures.
Ac3ManAzHQ mediated controlled cell labeling. LS174T colon cancer cells or Caco-2 colon cancer cells or human fibroblast IMR90 cells were seeded onto coverslips in a 6-well plate at a cell density of 40 k/well and allowed to attach for overnight. Ac3ManAzHQ with a final concentration of 50 μM was added, followed by the addition of curcumin with a final concentration of 50 μM. Cells treated with PBS or Ac3ManAzHQ only were used as control. After 72-h incubation, cell samples for confocal imaging and flow cytometry were prepared following the above-mentioned procedures.
E-S mediated controlled cell labeling in vitro. LS174T colon cancer cells or human fibroblast IMR90 cells were seeded onto coverslips in a 6-well plate at a cell density of 40 k/well. E-S with a final concentration of 50 μM was added, followed by the addition of either TSA (1 μM) or Z-FY-CHO (50 μM). Cells treated with PBS or E-S only were used as the control. After 72-h incubation, the medium was removed and cell samples for confocal imaging and GE-Analyzer measurements were prepared similarly to above-mentioned procedures.

In another data set the test system is LS174T cells. Briefly: Western blot analysis of LS174T cells treated with azido-sugars. The format is cell-based. The following applies: 72 h. As to the method: Western blot analysis of cells treated with azido-sugars. LS174T cells were seeded onto cell culture flasks (25 cm^2 growth area) at a density of 1×10^6 cells per plate in 5 mL of media. Different azido-sugars were added and incubated with cells for 72 h. The cells were washed with PBS twice and harvested from the flasks using a cell scraper. Cells were pelleted by centrifugation at 1000 rpm for 5 min and re-suspended in 200 μL of lysis buffer (1% SDS, 100 mM Tris.HCl, pH 7.4) containing 1 tablet protease inhibitor (EDTA-free). The lysate was incubated at 4° C. for 30 min, followed by centrifugation at 3000 rcf for 10 min to remove insoluble debris. The total concentration of soluble protein in each sample was determined by bicinchoninic acid (BCA) assay and adjusted to the same concentration. Then 20 μL of the lysate was taken out and incubated with phosphine-PEG3-biotin (2 μL, 5 mM in PBS) at 37° C. for 6 h. Loading buffer was added to each sample and samples were loaded onto 10% SDS-PAGE gel after heating at 95° C. After running the gel for 100 min, proteins were transferred to Hybond P membrane, followed by blocking of the membrane with 5% bovine serum albumin (BSA) in TBST (50 mM Tris.HCl, 150 mM NaCl, 0.1% Tween 20, pH 7.4) for 2 h. The membrane was then incubated with streptavidin-HRP (diluted 1:2000 in TBST) overnight at 4° C., rinsed with TBST for three times and developed by ECL Western Blotting Substrate. For fluorescent visualization of protein bands, 20 μL of cell lysate was directly incubated with DBCO-Cy3 solution for 3 h. After the gel running and membrane transfer, protein bands were visualized using an Image Quant LAS 4010 system with a Cy3/Cy3 (excitation/emission) channel.

Data set [2] has as its system subcutaneous LS174T tumors. Put plainly: In vivo tumor labeling after intratumoral injection of azido-sugars, DBCO-Cy5 i.v. Also noted: species or system athymic nude mice. As to the method: In vivo tumor labeling of Ac4ManAz, Ac3ManAzEt, and Ac3ManAzNB. LS174T tumor models were established on 6 week-old athymic nude mice by subcutaneous injection of LS174T colon cancer cells (1.5 million) in HBSS/matrigel (1/1, v/v) to both flanks. When the tumors grew to 5-6 mm, Ac4ManAz or Ac3ManAzEt or Ac3ManAzNB (25 mM, 20 μL) was injected into the left tumors once daily for three days while the same amount of PBS was injected to the right tumors as control (N=3 per group). At 24 h post the last injection, DBCO-Cy5 (5 mg/kg) was i.v. injected and its biodistribution was monitored via in vivo fluorescence imaging. Prior to imaging, nude mice were placed on the sample stage equipped with anesthesia input and output ports, and imaged by the Maestro In-Vivo Fluorescence Imaging System. The excitation filter of 575-605 nm was used. The tunable emission filter was automatically stepped in 10-nm increments from 630 to 850 nm with an exposure time of 50 ms for images taken at each wavelength. Collected images were analyzed by the Maestro software, which uses spectral unmixing algorithms to subtract autofluorescence from Cy5 signals. Tumors and major organs were harvested from mice at 24 h post injection of DBCO-Cy5. Ex vivo images were collected similarly using the Maestro system. Fluorescence intensity at selected ROIs was quantified using Maestro imaging software. All values were presented as means±standard deviation (n=3).
Western blot analysis of tissues. Tumors and organs harvested from azido-sugar treated mice were transferred into glass tubes containing 2 mL of lysis buffer (1% SDS, 100 mM Tris HCl, pH 7.4), homogenized, and incubated at 4° C. for 30 min. The lysates were then centrifuged at 3000 rcf for 10 min to remove the insoluble debris. Total soluble protein concentrations were determined by BCA assay and adjusted to 5 mg/mL for each group. The rest of procedures were the same as the above-mentioned western blot analysis of cells.
Confocal imaging of tumor tissue sections. After ex vivo imaging, tumors were directly frozen in O.C.T. compound and sectioned on a cryostat (Leica CM3050S) with a thickness of 6-8 μm. DAPI in PBS (2 μg/mL) was added onto the tissue-attaching microscope slides to stain cell nucleus. After 10 min, DAPI solution was removed and tissues were washed with PBS for three times. Coverslips were mounted on the microscope slides with the addition of ProLong Gold antifade reagent, and the prepared sample was stored in dark for confocal imaging.

In the next data set the test system is LS174T tumors. Briefly: E-S mediated cancer-selective labeling in vivo, western blot analysis of tissues. Also noted: species or system athymic nude mice. Particulars: i.v. once daily three days, 24 h p.i.; liver, spleen, heart, lung, kidney. On the procedure: (1) Western blot analysis of tissues. LS174T tumor models were established in 6 week-old athymic nude mice by subcutaneous injection of LS174T colon cancer cells (1.5 million) in HBSS/matrigel (1/1, v/v). When the tumors grew to 5-6 mm, E-S (60 mg/kg) was i.v. injected once daily for three days. Mice i.v. administered with Ac4ManAz (40 mg/kg, 10% DMSO in PBS) or PBS were used as control. At 24 h post the last injection, tumors and major organs were harvested, transferred into lysis buffer (2 mL), and homogenized. The lysates were incubated at 4° C. for 30 min, and insoluble debris was removed by centrifugation at 3000 rpm for 10 min. Total soluble protein concentrations were determined by BCA assay and adjusted to 5 mg/mL for each group. The rest of procedures were the same as the abovementioned general procedures for western blot analysis. Azido-labeled protein bands in tumor tissues and healthy tissues of all three groups were visualized and compared to understand the cancer-selective labeling capability of E-S in vivo.
On the technique in general: In western blotting, separated proteins are transferred to a membrane and probed.

For data set [3] the following is noted: in vivo.
Description: Liver, heart, kidneys, spleen, brain, sternum and spinal cord (cervical thoracic and lumbar) were fixed in formalin, paraffin-embedded, sectioned with a thickness of 4 μm, and stained with H&E. Tissues were analyzed by a board-certified pathologist to investigate treatment-mediated toxicity. These analyses were performed by a board certified pathologist.
In data set [4] the test system is cellular HDAC/CTSL activity. Briefly: Inhibitory effect of TSA and Z-FY-CHO on cellular HDAC/CTSL activity (Naph-Lys reporter). The format is cell-based. On the procedure:
Detection of cellular HDAC/CTSL activity. Cells were seeded in a 24-well plate at a cell density of 8 k/well, and were allowed to attach for overnight. Naph-Lys (50 μM) in OptiMEM was added and incubated with cells for different time (30 min, 1 h, 2 h, and 4 h). After removal of the OptiMEM and washing with PBS twice, cells were fixed with 4% PFA for 10 min and stained with DAPI (2 ng/mL) for 10 min. Average fluorescence intensity of cells were measured on a GE-Analyzer using DAPI and FITC channels. The DAPI channel was used for determining cell number per well. The FITC channel was used to determine the total fluorescence intensity of released Naph-NH2 per well. Data were presented with the average fluorescence intensity per cell.
Inhibitory effect of TSA and Z-FY-CHO on cellular HDAC/CTSL activity. TSA and Z-FY-CHO are known to be the inhibitor of HDAC and CTSL, respectively. To study their inhibitory effect, cells were seeded in a 24-well plate at a cell density of 8 k/well, and were allowed to attach for overnight. Cells were then divided into 4 groups: group 1 cells were added Naph-Lys (50 μM); group 2 cells were added Naph-Lys (50 μM)+TSA (1 μM); group 3 cells were added Naph-Lys (50 μM)+Z-FY-CHO (20 μM); group 4 cells were added PBS as negative control. […] Average fluorescence intensity of cells were measured on a GE-Analyzer using DAPI and FITC channels.

In data set [5] the test system is MDA-MB-231 breast cancer cells. Put plainly: E-S mediated in vitro labeling of MDA-MB-231 cells. The format is cell-based. On the procedure:
E-S mediated in vitro labeling of MDA-MB-231 cells. MDA-MB-231 breast cancer cells were seeded onto coverslips in a 6-well plate at a cell density of 40 k/well. E-S with a final concentration of 50 μM was added, followed by the addition of either TSA (1 μM) or Z-FY-CHO (50 μM). Cells treated with PBS or E-S only were used as control. After 72-h incubation, the medium was removed and cell samples for confocal imaging and IN cell Analyzer measurements were prepared following the above-mentioned procedures.

Peptide text beside a SMILES is read from it. * marks the point of attachment. Cbz = O=C(OCc1ccccc1)*

Take `CC(=O)OC[C@H]1OC(OC(C)=O)[C@@H](NC(=O)CN=[N+]=[N-])[C@@H](OC(C)=O)[C@@H]1OC(C)=O` (stereo partly drawn) [Ac4ManAz, tetraacetyl N-azidoacetylmannosamine]: the “Cy5 fluorescence on the cell surface (CLSM)” value in data set [1] (LS174T cells, 50 μM azido-sugar three days (72 h), then DBCO-Cy5 1 h) is listed as “strong Cy5 fluorescence on the cell surface”. In addition, the “Cy5 fluorescence by flow cytometry” value in data set [1] (LS174T cells, compared with cells treated with Ac3ManAzEt or PBS) is “significantly enhanced Cy5 fluorescence”. In addition, the “Western blot of azido-glycoproteins (biotinylated with phosphine-PEG3-biotin)” value in the data set with LS174T cells is on record as “a series of protein bands”. Moreover, the “In vivo Cy5 fluorescence intensity of pretreated left tumors vs control right tumors” value in data set [2] (24 h p.i. of i.v. DBCO-Cy5) is recorded as “much stronger Cy5 fluorescence intensity”. For the same molecule, the “Ex vivo increase in Cy5 FI compared to the control tumors” value in data set [2] (ex vivo imaging of tumors) is given as “over 4 fold”. The “Western blot of tumors (azido-modified glycoproteins)” value in data set [2] (intratumoral once daily for three days, tumors harvested 24 h p.i.) is “a series of azido-modified glycoproteins”. In data set [2] (tumor sections after ex vivo imaging), the “Cy5 fluorescence of tumor sections (confocal imaging)” value is “strong Cy5 fluorescence”. Moreover, in the data set with LS174T tumors, the “Azido-modified proteins in normal tissues (western blot)” value is “non-specific labeling in normal tissues”.
As for `COc1cccc2c1C(=O)c1c(O)c3c(c(O)c1C2=O)C[C@@](O)(C(=O)CO)C[C@@H]3O[C@H]1C[C@H](N)[C@H](O)[C@H](C)O1` [Doxo, doxorubicin], in data set [3], the “Toxicity in mouse tissues (bone marrow, spleen)” value is recorded as “much greater toxicity”.
Regarding `O=C[C@H](Cc1ccc(O)cc1)NC(=O)[C@H](Cc1ccccc1)NC(=O)OCc1ccccc1` [Z-FY-CHO] (Cbz-Phe-Tyr-aldehyde), the “Labeling efficiency of E-S on co-incubation with inhibitor” value in data set [1] (LS174T cells co-incubated with E-S and inhibitor) is “greatly reduced”. In data set [4], the “Turn-on fluorescence intensity of Naph-Lys in the presence of the inhibitor” value is “greatly decreased”. Also, the “Labeling efficiency of E-S in the presence of inhibitor” value in data set [5] is listed as “significantly decreased the labeling efficiency”.
